The source of these data is PubChem BioAssay (NCI).

Among the test systems are 786-0 renal; A498 renal; K-562 leukemia; NCI-H226 lung; OVCAR-4 ovarian; OVCAR-5 ovarian; SR leukemia; SW-620 colon; TK-10 renal; U251 CNS; UACC-257 melanoma; SK-OV-3 ovarian; T-47D breast.
Holding throughout (test): NCI-60 cell line screen, 48 h

The structures appear in SMILES notation.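 Growth conditions: 96-well plates. Treatment: test compound, 48 hours, 5 concentrations. Analysis: linear interpolation between bracketing concentrations; unreached endpoints set to highest concentration. Definition used: TGI = concentration required for complete inhibition of growth.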

As for `COC(=O)C1(O)c2ccccc2N=C2C(=O)c3ccccc3N21` (configuration not stated), the TGI in the assay with 786-0 renal, in the assay with A498 renal, with K-562 leukemia, in the assay on NCI-H226 lung, with OVCAR-4 ovarian and in the assay with OVCAR-5 ovarian was greater than 100 µM each time. In addition, the TGI with SR leukemia, in the assay with SW-620 colon, with TK-10 renal, in the assay on U251 CNS and in the assay with UACC-257 melanoma was greater than 100 µM throughout.

Consider `CCN(CC)Cc1cc(Nc2c3ccccc3nc3c2[nH]c2ccccc23)ccc1O`, for which the TGI in the assay with 786-0 renal is 2.8 µM; in the assay with A498 renal, 2.97 µM; in the assay with K-562 leukemia, greater than 100 µM; in the assay on NCI-H226 lung, 5.06 µM; with OVCAR-4 ovarian it was 3.32 µM; with OVCAR-5 ovarian it was 3.64 µM. Further, the TGI stood at 6.83 µM in the assay with SK-OV-3 ovarian; 1.01 µM in the assay with SR leukemia; 3.43 µM in the assay with SW-620 colon; 8.61 µM with TK-10 renal; 2.79 µM with U251 CNS; 4.45 µM in the assay on UACC-257 melanoma.

With `CC(=O)c1ccc2c(c1)oc(=O)n2CCN1CCCCC1`, the TGI in the assay with 786-0 renal, in the assay with A498 renal, in the assay with K-562 leukemia, in the assay with NCI-H226 lung, in the assay on OVCAR-5 ovarian and with SK-OV-3 ovarian was greater than 100 µM in each case. The TGI in the assay on SR leukemia, with SW-620 colon, in the assay on TK-10 renal, in the assay on U251 CNS and in the assay with UACC-257 melanoma was greater than 100 µM throughout.

Turning to `N#CC12C3C4CC5C6C4C1C6C(O)(C53)N2Cc1ccccc1` (configuration not stated), the TGI in the assay on 786-0 renal, in the assay with A498 renal, in the assay with K-562 leukemia, in the assay on NCI-H226 lung, with OVCAR-4 ovarian and in the assay with OVCAR-5 ovarian was greater than 100 µM throughout. The TGI in the assay with SK-OV-3 ovarian, in the assay on SR leukemia, with SW-620 colon, with TK-10 renal, in the assay with U251 CNS and in the assay with UACC-257 melanoma was greater than 100 µM in each case.

As for `COc1cc2[nH]c(-c3cccc(N(C)C)c3)cc(=O)c2cc1OC`, the TGI in the assay on 786-0 renal was greater than 100 µM; in the assay on A498 renal, greater than 100 µM; with K-562 leukemia it was greater than 100 µM; with NCI-H226 lung, greater than 25.3 µM; with OVCAR-4 ovarian, greater than 100 µM; in the assay with OVCAR-5 ovarian, greater than 100 µM. Besides, the TGI with SK-OV-3 ovarian, with SR leukemia, in the assay with SW-620 colon, in the assay on TK-10 renal and in the assay on UACC-257 melanoma was greater than 100 µM in each case.

Turning to `O=C(c1ccncc1)n1nc(-c2ccccc2)c(N=Nc2ccc([N+](=O)[O-])cc2)c1-c1ccccc1`, the TGI in the assay on 786-0 renal is greater than 100 µM; with A498 renal, greater than 100 µM; in the assay on K-562 leukemia, greater than 100 µM; in the assay on NCI-H226 lung it was greater than 100 µM; in the assay with OVCAR-4 ovarian it was 28.2 µM; in the assay with SK-OV-3 ovarian, greater than 100 µM. For the same compound, the TGI in the assay with SR leukemia, in the assay on SW-620 colon, in the assay on TK-10 renal and in the assay on UACC-257 melanoma was greater than 100 µM throughout.

`CC1=NN(C(=O)Cc2ccccc2)C(=O)/C1=C\C=C\c1ccccc1`: the TGI in the assay with 786-0 renal, with K-562 leukemia, in the assay with NCI-H226 lung, with OVCAR-4 ovarian, in the assay on OVCAR-5 ovarian and in the assay on SR leukemia was greater than 100 µM in each case. In addition, the TGI in the assay with SW-620 colon, in the assay with TK-10 renal and in the assay with UACC-257 melanoma was greater than 100 µM in each case.

`Cc1cc2oc(=O)[nH]c(=S)c2c(C)c1C`: the TGI in the assay with 786-0 renal, in the assay with A498 renal, in the assay with K-562 leukemia, in the assay with NCI-H226 lung, with OVCAR-4 ovarian and in the assay on SK-OV-3 ovarian was greater than 100 µM each time. The TGI with SR leukemia, with SW-620 colon, in the assay with TK-10 renal, in the assay on U251 CNS and in the assay on UACC-257 melanoma was greater than 100 µM throughout.

As for `CCOC(=O)CC[C@@H](NC(=O)c1ccc(N[C@@H]2c3cc4c(cc3C(c3cc(OC)c(O)c(OC)c3)C3C(=O)OC[C@@H]32)OCO4)cc1)C(=O)OCC` (some centres not stated), the TGI is greater than 10 µM in the assay on 786-0 renal; 0.0668 µM in the assay with A498 renal; greater than 10 µM with K-562 leukemia; 0.404 µM in the assay with OVCAR-5 ovarian; 0.0656 µM in the assay with SK-OV-3 ovarian; greater than 10 µM in the assay on SR leukemia. In addition, the TGI worked out at 0.375 µM with TK-10 renal, 0.123 µM with U251 CNS and 0.724 µM with UACC-257 melanoma.

On to `C=C[C@H]1CN2CCc3c([nH]c4c([C@H]5CCCN5C)c(O)ccc34)[C@@H]2C[C@@H]1C[C@H]1c2[nH]c3ccccc3c2CCN1C`, for which the TGI turned out to be 2.77 µM in the assay on 786-0 renal; 3.27 µM in the assay on OVCAR-4 ovarian; 3.26 µM in the assay on OVCAR-5 ovarian; 3.31 µM with SK-OV-3 ovarian; 2.93 µM in the assay on SW-620 colon; 3.72 µM in the assay with T-47D breast. For the same compound, the TGI in the assay with TK-10 renal worked out at 3.36 µM; in the assay on U251 CNS it was 2.92 µM; with UACC-257 melanoma, 3.54 µM.

Turning to `COc1ccc(CN(CCc2c[nH]c3ccccc23)Cc2ccc(OC)cc2)cc1`, the TGI with 786-0 renal is 12.6 µM; in the assay on A498 renal it was 9.3 µM; in the assay on K-562 leukemia, greater than 100 µM; in the assay with NCI-H226 lung it was 2.95 µM; in the assay on OVCAR-4 ovarian, 12.7 µM; in the assay with OVCAR-5 ovarian, 9.62 µM. Also, the TGI with SK-OV-3 ovarian was 17.9 µM; in the assay with SR leukemia, greater than 100 µM; in the assay on SW-620 colon, greater than 22 µM; with TK-10 renal, 3.97 µM; in the assay with UACC-257 melanoma it was 14.3 µM.

As to `CC(C)(C)[C@H]1CO[C@]2(C)[C@@H]3C[C@@H]3C(=O)N12`, the TGI with 786-0 renal, in the assay on K-562 leukemia, with NCI-H226 lung, with OVCAR-4 ovarian, in the assay with OVCAR-5 ovarian and in the assay on SK-OV-3 ovarian was greater than 100 µM in each case. Further, the TGI in the assay with SR leukemia, in the assay on SW-620 colon, with TK-10 renal, with U251 CNS and with UACC-257 melanoma was greater than 100 µM in each case.
